For the assay, the target named is T1, 10-formyltetrahydrofolate dehydrogenase (FDH) (Rattus norvegicus, UniProt P28037).
T1 sequence (P28037 1-902): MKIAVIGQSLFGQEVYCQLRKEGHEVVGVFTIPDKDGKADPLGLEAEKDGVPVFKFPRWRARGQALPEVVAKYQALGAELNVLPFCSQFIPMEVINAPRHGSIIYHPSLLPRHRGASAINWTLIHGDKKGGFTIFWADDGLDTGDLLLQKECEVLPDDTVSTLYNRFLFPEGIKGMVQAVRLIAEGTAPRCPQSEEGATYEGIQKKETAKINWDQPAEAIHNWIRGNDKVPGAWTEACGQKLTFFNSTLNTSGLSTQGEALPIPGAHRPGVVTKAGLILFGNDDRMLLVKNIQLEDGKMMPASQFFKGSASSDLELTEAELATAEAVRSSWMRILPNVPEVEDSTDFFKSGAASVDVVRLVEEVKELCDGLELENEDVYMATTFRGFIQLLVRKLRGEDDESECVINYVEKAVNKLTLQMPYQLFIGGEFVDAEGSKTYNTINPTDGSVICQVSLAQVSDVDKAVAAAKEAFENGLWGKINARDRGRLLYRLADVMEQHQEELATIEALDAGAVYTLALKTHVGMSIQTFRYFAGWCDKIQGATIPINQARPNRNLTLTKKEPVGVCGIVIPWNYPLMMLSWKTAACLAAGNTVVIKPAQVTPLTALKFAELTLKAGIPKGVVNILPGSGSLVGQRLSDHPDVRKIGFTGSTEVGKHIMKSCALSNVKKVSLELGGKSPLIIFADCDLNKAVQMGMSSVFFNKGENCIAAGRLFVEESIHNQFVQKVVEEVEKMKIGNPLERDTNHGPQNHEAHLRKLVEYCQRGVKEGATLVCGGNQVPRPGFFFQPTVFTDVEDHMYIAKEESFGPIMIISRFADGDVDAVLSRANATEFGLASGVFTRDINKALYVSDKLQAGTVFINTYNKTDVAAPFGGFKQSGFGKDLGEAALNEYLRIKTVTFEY
The assay can be described thus: THF formation at […] nm with NADP+, hydrolytic rate subtracted. The class given is biochemical.

As a reminder, the IC50 is the concentration needed to halve the response being measured. Read a high IC50 as lower potency.

Consider `CC=O` [acetaldehyde], for which inhibition was half-maximal at 4 mM (IC50).
